# Measurements: patent US20100267732A1, “Prognostic Molecular Markers for ET-743 Treatment” (PHARMA MAR, S.A., priority 2007, published 2010)
# Experiments:
# [1] = tested on: sarcoma; assay: Clinical outcome of sarcoma patients treated with ET-743 (Example 2, 168 patients; by XPG SNP Asp1104His genotype, XPG mRNA, XPG protein); type: in vivo, human; parameters: surviving patients at two years after treatment / Tumor Control Rate (CR+PR+MR+SD≧6 mo) / patients achieving progression free survival ≧6 months (PFS6) / survival at 12 months / rate of survival after 2 years: concentration or dose not given beside the values
# Protocol: In this study, 168 paraffin embedded tumor samples from sarcoma patients before the treatment with any chemotherapy agent have been evaluated.
# (§1) The majority of patients were treated before with one or several chemotherapy agents and later they followed a treatment with ET-743. The dosage of intravenous infusion (IV) of ET-743 given to the different patients was within the range of 1.650-1.0 mg/m^2; the schedules were 24 hours or 3 hour IV infusion with a three week interval between cycles; and the number of cycles ranged from 1 up to 44 cycles in some patients.
# The clinical data from the patients was collected in the clinical data collection form and matched with the molecular data (Table 5)
# A total of 168 paraffin embedded tumor samples providing evaluable results for at least one of the biomarkers (XPGmRNA, XPG protein, XPGAsp1104His or BRCA 1 mRNA) were analysed.
# [2] = tested on: sarcoma; assay: Clinical outcome of sarcoma patients treated with ET-743 (Example 1, 160 patients; by XPG mRNA, XPG protein, BRCA1 mRNA); type: in vivo, human; parameters: Tumor Control Rate (CR+PR+MR+SD 6 mo) / patients achieving progression free survival 6 months (PFS6) / survival at 12 months: concentration or dose not given beside the values
# Protocol: In this study, 160 paraffin embedded tumor samples from sarcoma patients before the treatment with any chemotherapy agent have been evaluated.
# as §1
# The clinical data from the patients was collected in the clinical data collection form and matched with the molecular data after completion of the mRNA and protein expression levels determination (Table 1).
# SAS v8.2 (statistical software) was used for all the statistical analysis. The statistical techniques for univariate, bivariate and multivariate variables were chosen, according with the nature of variables that will be analysed, i.e. when the dependent variable is a temporal variable with censor status the Cox regression would be applied, when correlation between variables will be computed the Pearson and/or Spearman measures would be used. P-values below 0.05 will be considered statistically significant in all tests, when appropriate 95% confidence intervals will be presented too.
# A total of 160 paraffin embedded tumor samples providing evaluable results for mRNA or protein expression were analysed. […] These samples came from sarcoma patients before being treated with a chemotherapy agent.
# [3] = whole cohort, 51 patients still censored
# [4] = whole cohort, Kaplan-Meier (FIG. 8)
# [5] = high vs low XPG mRNA subpopulation
# [6] = high vs low XPG protein subpopulation
# [7] = intermediate subpopulation (high BRCA1 and high XPG, or low BRCA1 and low XPG)
structure (smiles),measurement,setting,value
"COc1cc2c(cc1O)CCN[C@]21CS[C@@H]2c3c(OC(C)=O)c(C)c4c(c3[C@H](COC1=O)N1[C@@H]2[C@H]2c3c(cc(C)c(OC)c3O)C[C@@H]([C@@H]1O)N2C)OCO4 [ET-743, ecteinascidin 743]",Minor Responses (MR),[1]; 147 evaluable patients,6.8%
same,Tumor Control Rate (CR+PR+MR+SD≧6 mo),[1]; 147 evaluable patients,44.9%
same,"overall response rate (RR), Complete+Partial Responses",[1]; 147 evaluable patients,15.6%
same,patients achieving progression free survival ≧6 months (PFS6),[1]; 147 evaluable patients,39.5%
same,Median PFS,"[1]; Asp/Asp XPG (W), XPG mRNA < 1.55",1.8 months
same,Median PFS,"[1]; Asp/Asp XPG (W), XPG protein 0 + 1",2.9 months
same,Median PFS,"[1]; Asp/His + His/His XPG (H + M), XPG mRNA < 1.55",3.3 months
same,Median PFS,"[1]; Asp/His + His/His XPG (H + M), XPG protein 0 + 1",3.3 months
same,Median OS,"[1]; H + M, XPG mRNA < 1.55",9.0 months
same,OS at 12 months,"[1]; H + M, XPG mRNA < 1.55",39.1%
same,PFS at 6 months,"[1]; H + M, XPG mRNA < 1.55",31.3%
same,Median OS,"[1]; H + M, XPG mRNA >= 1.55",5.0 months
same,Median PFS,"[1]; H + M, XPG mRNA >= 1.55",2.9 months
same,OS at 12 months,"[1]; H + M, XPG mRNA >= 1.55",36.9%
same,PFS at 6 months,"[1]; H + M, XPG mRNA >= 1.55",15.4%
same,Median OS,"[1]; H + M, XPG protein 0 + 1",6.2 months
same,OS at 12 months,"[1]; H + M, XPG protein 0 + 1",23.7%
same,OS at 24 months,"[1]; H + M, XPG protein 0 + 1",0%
same,PFS at 6 months,"[1]; H + M, XPG protein 0 + 1",26.3%
same,Median OS,"[1]; H + M, XPG protein 2 + 3",12.2 months
same,Median PFS,"[1]; H + M, XPG protein 2 + 3",3.4 months
same,OS at 12 months,"[1]; H + M, XPG protein 2 + 3",52.6%
same,OS at 24 months,"[1]; H + M, XPG protein 2 + 3",0%
same,PFS at 6 months,"[1]; H + M, XPG protein 2 + 3",27.3%
same,rate of survival after 2 years,[1]; M+H genotype and high XPG mRNA expression,0%
same,rate of survival after 2 years,[1]; M+H genotype and low XPG mRNA expression,39.1%
same,rate of survival after 2 years,[1]; W genotype and high XPG mRNA expression,66.9%
same,rate of survival after 2 years,[1]; W genotype and low XPG mRNA expression,28.9%
same,Median OS,"[1]; W, XPG mRNA < 1.55",8.6 months
same,OS at 12 months,"[1]; W, XPG mRNA < 1.55",28.9%
same,PFS at 6 months,"[1]; W, XPG mRNA < 1.55",26.3%
same,Median OS,"[1]; W, XPG mRNA >= 1.55",27.7 months
same,Median PFS,"[1]; W, XPG mRNA >= 1.55",17.1 months
same,OS at 12 months,"[1]; W, XPG mRNA >= 1.55",83.7%
same,PFS at 6 months,"[1]; W, XPG mRNA >= 1.55",82.4%
same,Median OS,"[1]; W, XPG protein 0 + 1",11.7 months
same,OS at 12 months,"[1]; W, XPG protein 0 + 1",47.1%
same,OS at 24 months,"[1]; W, XPG protein 0 + 1",40.4%
same,PFS at 6 months,"[1]; W, XPG protein 0 + 1",44.0%
same,Median OS,"[1]; W, XPG protein 2 + 3",27.7 months
same,Median PFS,"[1]; W, XPG protein 2 + 3",8.0 months
same,OS at 12 months,"[1]; W, XPG protein 2 + 3",90.0%
same,OS at 24 months,"[1]; W, XPG protein 2 + 3",90.0%
same,PFS at 6 months,"[1]; W, XPG protein 2 + 3",77.1%
same,Median PFS (KM),[1]; genotype H,3.4 months
same,Median Survival (KM),[1]; genotype H,6.9 months
same,PFS6 (KM),[1]; genotype H,34.6%
same,survival at 12 months,[1]; genotype H,34.6%
same,CR + PR + MR + SD ≧ 6,[1]; genotype M,0
same,Median PFS (KM),[1]; genotype M,1.6 months
same,Median Survival (KM),[1]; genotype M,9.1 months
same,PFS6 (KM),[1]; genotype M,0%
same,survival at 12 months,[1]; genotype M,31.3%
same,Median PFS (KM),[1]; genotype W,6.4 months
same,Median Survival (KM),[1]; genotype W,19.9 months
same,PFS6 (KM),[1]; genotype W,50.8%
same,survival at 12 months,[1]; genotype W,54%
same,median duration of the response (CR+PR+MR),[1]; whole cohort,7.83 months
same,Median Survival,[1]; [3],9.6 months
same,surviving patients at two years after treatment,"[1]; whole cohort, Kaplan-Meier",34.0%
same,Median Survival,[1]; [4],15.4 months
same,PFS6 rate,[1]; [4],40.2%
same,median progression free survival,[1]; [4],3.4 months
same,Minor Responses (MR),[2]; 140 evaluable patients,7.1%
same,Tumor Control Rate (CR+PR+MR+SD 6 mo),[2]; 140 evaluable patients,47.1%
same,"overall response rate (RR), Complete+Partial Responses",[2]; 140 evaluable patients,16.4%
same,patients achieving progression free survival 6 months (PFS6),[2]; 140 evaluable patients,41.4%
same,CR + PR + MR + SD > 6,"[2]; High BRCA1, High XPG",11/26 (42%)
same,Median PFS,"[2]; High BRCA1, High XPG",2.5 m
same,Median Survival,"[2]; High BRCA1, High XPG",13.6 m
same,PFS 6,"[2]; High BRCA1, High XPG",38.5%
same,PFS > 6 Months rate,"[2]; High BRCA1, High XPG",9/26 (35%)
same,CR + PR + MR + SD > 6,"[2]; High BRCA1, Low XPG",4/20 (20%)
same,Median PFS,"[2]; High BRCA1, Low XPG",2.5 m
same,Median Survival,"[2]; High BRCA1, Low XPG",6.6 m
same,PFS 6,"[2]; High BRCA1, Low XPG",22.2%
same,PFS > 6 Months rate,"[2]; High BRCA1, Low XPG",4/21 (19%)
same,CR + PR,"[2]; High BRCA1 mRNA, High XPG mRNA",5/26 (19%)
same,CR + PR,"[2]; High BRCA1 mRNA, Low XPG mRNA",0/20 (0%)
same,CR + PR + MR + SD > 6,"[2]; Low BRCA1, High XPG",12/19 (63%)
same,Median PFS,"[2]; Low BRCA1, High XPG",7.3 m
same,Median Survival,"[2]; Low BRCA1, High XPG",15.4 m
same,PFS 6,"[2]; Low BRCA1, High XPG",55.7%
same,PFS > 6 Months rate,"[2]; Low BRCA1, High XPG",10/21 (48%)
same,CR + PR + MR + SD > 6,"[2]; Low BRCA1, Low XPG",14/31 (45%)
same,Median PFS,"[2]; Low BRCA1, Low XPG",3.4 m
same,Median Survival,"[2]; Low BRCA1, Low XPG",11.7 m
same,PFS 6,"[2]; Low BRCA1, Low XPG",35.5%
same,PFS > 6 Months rate,"[2]; Low BRCA1, Low XPG",12/27 (61%)
same,CR + PR,"[2]; Low BRCA1 mRNA, High XPG mRNA",3/19 (16%)
same,CR + PR,"[2]; Low BRCA1 mRNA, Low XPG mRNA",6/31 (19%)
same,CR + PR,[2]; XPG mRNA < 1.55,6/59 (10%)
same,CR + PR + MR + SD ≧ 6,[2]; XPG mRNA < 1.55,21/59 (36%)
same,Median PFS (KM),[2]; XPG mRNA < 1.55,2.5 m
same,Median Survival (KM),[2]; XPG mRNA < 1.55,9.3 m
same,PFS6 (KM),[2]; XPG mRNA < 1.55,29.5%
same,PFS ≧ 6 Months rate,[2]; XPG mRNA < 1.55,18/60 (30%)
same,CR + PR,[2]; XPG mRNA ≧ 1.55,11/57 (19%)
same,CR + PR + MR + SD ≧ 6,[2]; XPG mRNA ≧ 1.55,32/57 (56%)
same,Median PFS (KM),[2]; XPG mRNA ≧ 1.55,7.1 m
same,Median Survival (KM),[2]; XPG mRNA ≧ 1.55,19.1 m
same,PFS6 (KM),[2]; XPG mRNA ≧ 1.55,52.1%
same,PFS ≧ 6 Months rate,[2]; XPG mRNA ≧ 1.55,28/59 (47.5%)
same,CR + PR + MR + SD ≧ 6,[2]; XPG protein 0 + 1,27/64 (42%)
same,Median PFS (KM),[2]; XPG protein 0 + 1,3.7 m
same,Median Survival (KM),[2]; XPG protein 0 + 1,11.7 m
same,PFS6 (KM),[2]; XPG protein 0 + 1,39.9%
same,PFS ≧ 6 Months,[2]; XPG protein 0 + 1,26/64 (39%)
same,CR + PR + MR + SD ≧ 6,[2]; XPG protein 2 + 3,15/25 (60%)
same,Median PFS (KM),[2]; XPG protein 2 + 3,7.1 m
same,Median Survival (KM),[2]; XPG protein 2 + 3,27.7 m
same,PFS6 (KM),[2]; XPG protein 2 + 3,55.6%
same,PFS ≧ 6 Months,[2]; XPG protein 2 + 3,13/25 (50%)
same,CR + PR,[2]; XPG protein IHC score 0 + 1,8/64 (13%)
same,CR + PR,[2]; XPG protein IHC score 2 + 3,6/25 (24%)
same,survival at 12 months,"[2]; high XPG expression (protein analysis, FIG. 5)",73.7%
same,survival at 12 months,[2]; high XPG mRNA expression,61.9%
same,fold increase in objective response,[2]; [5],1.9 fold
same,fold increase in tumor control rate,[2]; [5],1.6 fold
same,fold increase in objective response,[2]; [6],1.85 fold
same,fold increase in tumor control rate,[2]; [6],1.43 fold
same,Median OS,[2]; [7],13.6 months
same,Median PFS,[2]; [7],2.8 months
same,PFS6 rate,[2]; [7],36.6%
same,survival at 12 months,[2]; low XPG mRNA expression,46.2%
same,survival at 12 months,[2]; low XPG protein expression,45.5%
same,median duration of the response (CR+PR+MR),[2]; whole cohort,7.83 months
same,Median Survival,[2]; [3],10 months
same,Median Survival,"[2]; whole cohort, Kaplan-Meier",17.7 months
same,PFS6 rate,"[2]; whole cohort, Kaplan-Meier",42.1%
same,median progression free survival,"[2]; whole cohort, Kaplan-Meier",3.8 months
